Here are results for three compounds from patent US11554113B2, “Methods for treating disorders or diseases associated with hyperlipidemia and hypercholesterolemia while minimizing side-effects” (The Trustees of the University of Pennsylvania, priority 2004, dated 2023).

Read-outs that look alike come from different tables or passages of the source.

In data set [1] the target is microsomal triglyceride transfer protein (MTP) (Homo sapiens, UniProt P55157). Conditions: for mean percent change in apoB / mean percent change in non-HDL cholesterol / mean percent change in total cholesterol: 6 hoFH subjects. On the procedure: This theory was applied in designing a study investigating the safety, tolerability and efficacy of BMS-201038 in patients with homozygous familial hypercholesterolemia (hoFH).
Sequence of microsomal triglyceride transfer protein (MTP) (P55157 19-894): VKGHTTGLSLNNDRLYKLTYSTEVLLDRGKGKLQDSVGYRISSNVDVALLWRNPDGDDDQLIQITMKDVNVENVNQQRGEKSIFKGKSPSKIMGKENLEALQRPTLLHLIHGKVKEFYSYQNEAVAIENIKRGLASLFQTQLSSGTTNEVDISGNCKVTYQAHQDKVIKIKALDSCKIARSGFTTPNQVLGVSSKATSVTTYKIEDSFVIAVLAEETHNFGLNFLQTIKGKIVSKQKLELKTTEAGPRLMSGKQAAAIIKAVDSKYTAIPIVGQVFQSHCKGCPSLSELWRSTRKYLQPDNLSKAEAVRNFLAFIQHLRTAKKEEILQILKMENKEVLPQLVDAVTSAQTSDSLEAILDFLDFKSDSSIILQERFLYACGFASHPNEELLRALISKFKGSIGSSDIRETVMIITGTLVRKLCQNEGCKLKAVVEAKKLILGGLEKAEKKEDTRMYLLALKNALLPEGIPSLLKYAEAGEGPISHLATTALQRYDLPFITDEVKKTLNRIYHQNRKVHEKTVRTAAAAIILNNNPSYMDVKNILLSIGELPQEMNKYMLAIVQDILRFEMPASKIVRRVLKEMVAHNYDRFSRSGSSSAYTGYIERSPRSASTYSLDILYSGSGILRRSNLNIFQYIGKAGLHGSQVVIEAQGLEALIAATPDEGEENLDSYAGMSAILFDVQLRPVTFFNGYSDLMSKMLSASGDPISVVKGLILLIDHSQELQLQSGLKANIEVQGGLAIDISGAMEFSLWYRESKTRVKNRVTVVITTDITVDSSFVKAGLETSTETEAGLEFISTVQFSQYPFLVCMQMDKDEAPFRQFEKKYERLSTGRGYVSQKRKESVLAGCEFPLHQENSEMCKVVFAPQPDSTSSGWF
Sequence of microsomal triglyceride transfer protein (MTP) (P07237 18-508 partner): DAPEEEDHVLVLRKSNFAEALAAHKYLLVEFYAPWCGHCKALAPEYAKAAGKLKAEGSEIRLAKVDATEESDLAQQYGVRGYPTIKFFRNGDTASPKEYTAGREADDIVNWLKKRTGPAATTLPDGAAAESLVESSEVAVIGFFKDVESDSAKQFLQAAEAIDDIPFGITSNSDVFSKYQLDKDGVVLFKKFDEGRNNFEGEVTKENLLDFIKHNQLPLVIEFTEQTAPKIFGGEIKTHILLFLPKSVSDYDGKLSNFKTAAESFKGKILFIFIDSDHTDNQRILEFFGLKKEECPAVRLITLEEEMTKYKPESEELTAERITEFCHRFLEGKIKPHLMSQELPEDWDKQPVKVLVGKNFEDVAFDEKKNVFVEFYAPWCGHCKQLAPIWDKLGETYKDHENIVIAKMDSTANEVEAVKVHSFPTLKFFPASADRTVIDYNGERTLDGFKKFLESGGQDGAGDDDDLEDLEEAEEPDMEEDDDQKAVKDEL
Subjects received once daily dosing of 4 doses of BMS-201038 (0.03, 0.1, 0.3 and 1.0 mg/kg) for 4 weeks at each dose. We chose an initial low dose (0.03 mg/kg) that while not expecting to be efficacious, would be a dose that would be expected to be safe and well tolerated (˜2.1 mg in the 70 kg person) The remaining three doses were chosen by calculating ½ log units of the previous dose.

The next data set deals with apoB secretion. Conditions: cell culture studies; read-out: IC50 for inhibition of apoB secretion; cited from earlier work.
The subject of the next data set is apoAI secretion. Conditions: cell culture studies; read-out: IC50 for inhibition of apoAI secretion; cited from earlier work.
For data set [2] the following is noted: rats, cited from earlier work.
The conditions of data set [3]: dogs, six-month toxicity study, doses 0-10 mg/kg; cited from earlier work.
For the next data set, the system named is cholesterol levels. Conditions: cited from earlier work.
The test system of data set [4] is low density lipoprotein cholesterol (LDL-C). Conditions: cited from earlier work.
The conditions of data set [5]: 25 mg per day for 4 weeks, primary hypercholesterolemia, some patients; cited from earlier work.
The subject of a further data set is LDL-C. Conditions: cited from earlier work.
For the next data set, the system named is cholesterol. To be noted: in vivo; cited from earlier work.
[6] abbreviates: 0.3 mg/kg once daily for 4 weeks (second highest dose).
Where [7] appears, read: 1.0 mg/kg once daily for 4 weeks (highest dose).
Setting [8] is: dose of 10 mg/kg, rabbits that lack a functional LDL receptor.

Regarding `O=C(NC1CCN(CCCCC2(C(=O)NCC(F)(F)F)c3ccccc3-c3ccccc32)CC1)c1ccccc1-c1ccc(C(F)(F)F)cc1` [BMS-201038, N-(2,2,2-Trifluorethyl)-9-[4-[4-[[[4′-(trifluoromethyl) [1,1′biphenyl]-2-Y1]carbonyl]amino]-1-piperidinyl]butyl]9H-fluorene-9-carboxamide, methanesulfonate], in data set [1] (setting [6]), the “mean percent change in apoB” value is given as −15±16%, the “mean percent change in non-HDL cholesterol” value is −31±9% and the “mean percent change in total cholesterol” value is listed as −30±9%. For the same compound, in data set [1] (setting [7]), the “mean percent change in apoB” value is listed as −55±13%, the “mean percent change in non-HDL cholesterol” value was −60±8.8% and the “mean percent change in total cholesterol” value is recorded as −58±8.5%. For the same compound, in data set [1] (human, in vivo, 4 weeks), the “increase in hepatic fat by NMRS from baseline to 4 weeks on 1 mg/kg” value is given as 3-37%. The IC50 in the data set with apoB secretion is 0.0008 µM. The IC50 with apoAI secretion was 6.5 µM. Besides, in data set [2] (six-month toxicity study, doses 0-20 mg/kg), the “doses associated with subacute inflammation and single-cell necrosis of hepatocytes and histiocytosis (phospholipidosis) in the lungs” value is recorded as ≥ 0.2 mg/kg. In data set [2], the “hepatic accumulation of lipids at the end of a 1-month washout period” value is “reversed”. Also, the “subacute inflammation and single-cell necrosis of hepatocytes and histiocytosis (phospholipidosis) in the lungs” value in [3] is “not in dogs”. Besides, in the data set with cholesterol levels (10 mg/kg, animal study by Wetterau and colleagues), the LDL cholesterol reduction entry is on record as “greater than 80%”. Also, in the data set on cholesterol levels (setting [8]), the cholesterol levels entry was “essentially normalized” and the “plasma AST or ALT” value is on record as “no alteration”. Further, the “ED50 value for lowering cholesterol” value in the data set with cholesterol levels (rabbits that lack a functional LDL receptor) is 1.9 mg/kg. Also, the “reduction of low density lipoprotein cholesterol (LDL-C)” value in [4] (healthy volunteers with hypercholesterolemia) is “up to 65%”. The “doses at which gastrointestinal side effects/steatorrhea, elevation of serum transaminases and hepatic fat accumulation were primarily observed” value in data set [4] (human clinical development) was ≥ 25 mg/day. For the same compound, in [5], the “gastrointestinal (GI) symptoms (steatorrhea, abdominal cramping and distention)” value is “clinically significant”.
For the compound `CC(C)c1c(C(=O)Nc2ccccc2)c(-c2ccccc2)c(-c2ccc(F)cc2)n1CC[C@@H](O)C[C@@H](O)CC(=O)O` [atorvastatin], in the data set on LDL-C (genotype-confirmed hoFH, maximal dose of statins 80 mg/day), the “mean LDL-C reduction” value was “about 5.5%”.
With `O=C1[C@H](CC[C@H](O)c2ccc(F)cc2)[C@@H](c2ccc(O)cc2)N1c1ccc(F)cc1` [ezetimibe], the “total reduction of LDL-C levels” value in the data set with LDL-C (ezetimibe 10 mg/day added to atorvastatin or simvastatin 80 mg/day, hoFH) is recorded as 27%. Besides, in the data set on cholesterol, the “reduction of LDL cholesterol” value is given as “about 18%”.
